The NIST ThermoML archive (doi:10.1016/j.jct.2019.03.040)

Columns and labels:
[1] = Liquid; for Critical pressure / Critical temperature: Resistive pulse heating; for thermal diffusivity: 101.33 kPa, Laser flash apparatus
[2] = molar heat capacity at constant pressure; settings: 101.33 kPa, Small sample (50 mg) DSC

CC(=O)CCC(=O)O [4-oxopentanoic acid]
[1]
Settings | Critical pressure [kPa] | Critical temperature [K]
– | 5310 | 766

[2], Metastable liquid
Settings | molar heat capacity at constant pressure [J/K/mol]
302.62 K | 245.93
303.12 K | 246.16
303.62 K | 246.05
304.12 K | 246.28
304.62 K | 246.16
305.12 K | 246.51
305.62 K | 246.4
306.12 K | 246.86
306.62 K | 246.86
307.12 K | 246.86
307.62 K | 246.86
308.12 K | 246.98
308.62 K | 247.44
309.12 K | 247.09
309.62 K | 247.33
310.12 K | 247.44
310.62 K | 248.02
311.12 K | 247.91
311.62 K | 247.91
312.12 K | 247.91
312.62 K | 247.91
313.12 K | 247.56
313.62 K | 247.91
314.12 K | 248.25
314.62 K | 248.37
315.12 K | 248.49
315.62 K | 248.83
316.12 K | 248.95
316.62 K | 249.53
317.12 K | 249.65
317.62 K | 249.76
318.12 K | 250.46
318.62 K | 250.23
319.12 K | 250
319.62 K | 250.34
320.12 K | 250.11
320.62 K | 250.46
321.12 K | 250.34
321.62 K | 250.46
322.12 K | 250.58
322.62 K | 250.46
323.12 K | 251.16
323.62 K | 251.04
324.12 K | 251.27
324.62 K | 251.51
325.12 K | 251.27
325.62 K | 251.39
326.12 K | 251.74
326.62 K | 252.2
327.12 K | 251.85
327.62 K | 251.85
328.12 K | 251.85
328.62 K | 252.09
329.12 K | 252.32
329.62 K | 251.85
330.12 K | 252.55
330.62 K | 252.55
331.12 K | 252.67
331.62 K | 253.25
332.12 K | 253.6
332.62 K | 253.83
333.12 K | 254.06
333.62 K | 254.29
334.12 K | 254.06
334.62 K | 254.18
335.12 K | 254.41
335.62 K | 254.41
336.12 K | 254.87
336.62 K | 254.64
337.12 K | 255.11
337.62 K | 255.45
338.12 K | 255.22
338.62 K | 255.22
339.12 K | 255.57
339.62 K | 255.8
340.12 K | 256.03
340.62 K | 256.5
341.12 K | 256.73
341.62 K | 257.08
342.12 K | 257.43
342.62 K | 257.54
343.12 K | 257.66
343.62 K | 257.89
344.12 K | 257.89
344.62 K | 257.31
345.12 K | 257.43
345.62 K | 257.54
346.12 K | 257.89
346.62 K | 258.24
347.12 K | 258.59
347.62 K | 258.7
348.12 K | 258.59
348.62 K | 258.82
349.12 K | 258.94
349.62 K | 258.82
350.12 K | 258.94
350.62 K | 259.17
351.12 K | 259.17
351.62 K | 259.29
352.12 K | 260.21
352.62 K | 260.1
353.12 K | 259.87
353.62 K | 260.33
354.12 K | 260.45
354.62 K | 259.75
355.12 K | 260.21
355.62 K | 260.45
356.12 K | 260.79
356.62 K | 260.79
357.12 K | 260.56
357.62 K | 260.79
358.12 K | 260.45
358.62 K | 260.56
359.12 K | 261.03
359.62 K | 260.68
360.12 K | 260.79
360.62 K | 261.03
361.12 K | 261.38
361.62 K | 261.61
362.12 K | 261.96
362.62 K | 262.07
363.12 K | 262.07
363.62 K | 262.07
364.12 K | 262.88
364.62 K | 262.77
365.12 K | 263.12
365.62 K | 263.7
366.12 K | 264.39
366.62 K | 264.39
367.12 K | 263.93
367.62 K | 263.47
368.12 K | 263.12
368.62 K | 263.12
369.12 K | 263.47
369.62 K | 263.47
370.12 K | 263.7
370.62 K | 263.7
371.12 K | 263.93
371.62 K | 264.05
372.12 K | 264.28
372.62 K | 264.05
373.12 K | 264.28
373.62 K | 264.28
374.12 K | 264.51

CCCCOC(=O)CCC(C)=O [butyl levulinate]
[1]
Settings | thermal diffusivity [m2/s]
303.15 K | 7.77e-08
313.15 K | 7.68e-08
323.15 K | 7.57e-08
333.15 K | 7.48e-08
343.15 K | 7.37e-08
353.15 K | 7.26e-08
363.15 K | 7.15e-08
373.15 K | 7.06e-08

[1]
Settings | Critical pressure [kPa] | Critical temperature [K]
– | 2410 | 692

[2], Liquid
Settings | molar heat capacity at constant pressure [J/K/mol]
302.66 K | 336.87
303.16 K | 337.38
303.66 K | 338.59
304.16 K | 338.42
304.66 K | 337.73
305.16 K | 337.38
305.66 K | 337.73
306.16 K | 337.55
306.66 K | 338.42
307.16 K | 339.28
307.66 K | 338.76
308.16 K | 337.9
308.66 K | 338.24
309.16 K | 338.42
309.66 K | 339.1
310.16 K | 338.93
310.66 K | 340.14
311.16 K | 338.76
311.66 K | 338.59
312.16 K | 338.76
312.66 K | 338.76
313.16 K | 338.42
313.66 K | 338.76
314.16 K | 339.97
314.66 K | 339.79
315.16 K | 339.97
315.66 K | 339.62
316.16 K | 340.31
316.66 K | 340.14
317.16 K | 340.65
317.66 K | 340.65
318.16 K | 341.17
318.66 K | 341
319.16 K | 341.17
319.66 K | 341
320.16 K | 340.14
320.66 K | 341.69
321.16 K | 341.69
321.66 K | 341
322.16 K | 341
322.66 K | 341.69
323.16 K | 342.03
323.66 K | 342.38
324.16 K | 341.69
324.66 K | 342.89
325.16 K | 342.2
325.66 K | 341.52
326.16 K | 342.2
326.66 K | 343.24
327.16 K | 342.89
327.66 K | 343.07
328.16 K | 343.41
328.66 K | 341.34
329.16 K | 341.86
329.66 K | 342.38
330.16 K | 342.89
330.66 K | 342.89
331.16 K | 343.07
331.66 K | 342.38
332.16 K | 342.72
332.66 K | 343.58
333.16 K | 343.24
333.66 K | 344.27
334.16 K | 345.13
334.66 K | 344.44
335.16 K | 345.48
335.66 K | 344.79
336.16 K | 344.27
336.66 K | 345.65
337.16 K | 345.3
337.66 K | 345.3
338.16 K | 346.34
338.66 K | 346.51
339.16 K | 345.82
339.66 K | 346.34
340.16 K | 347.03
340.66 K | 346.17
341.16 K | 346.68
341.66 K | 346.17
342.16 K | 347.03
342.66 K | 346.68
343.16 K | 347.72
343.66 K | 347.37
344.16 K | 347.37
344.66 K | 347.54
345.16 K | 348.06
345.66 K | 348.23
346.16 K | 347.89
346.66 K | 348.58
347.16 K | 348.23
347.66 K | 349.09
348.16 K | 348.92
348.66 K | 349.27
349.16 K | 349.27
349.66 K | 349.78
350.16 K | 349.78
350.66 K | 350.13
351.16 K | 349.95
351.66 K | 349.61
352.16 K | 350.13
352.66 K | 348.58
353.16 K | 348.23
353.66 K | 348.58
354.16 K | 349.44
354.66 K | 349.95
355.16 K | 349.95
355.66 K | 350.64
356.16 K | 350.13
356.66 K | 350.13
357.16 K | 351.5
357.66 K | 350.99
358.16 K | 351.5
358.66 K | 351.68
359.16 K | 351.85
359.66 K | 351.85
360.16 K | 352.02
360.66 K | 351.68
361.16 K | 352.37
361.66 K | 353.05
362.16 K | 352.71
362.66 K | 352.88
363.16 K | 352.02
363.66 K | 352.71
364.16 K | 353.23
364.66 K | 353.57
365.16 K | 353.05
365.66 K | 353.4
366.16 K | 353.4
366.66 K | 354.6
367.16 K | 353.57
367.66 K | 353.57
368.16 K | 354.09
368.66 K | 353.92
369.16 K | 353.57
369.66 K | 353.4
370.16 K | 354.95
370.66 K | 354.78
371.16 K | 354.09
371.66 K | 354.78
372.16 K | 355.29
372.66 K | 355.81
373.16 K | 354.78
373.66 K | 355.81
374.16 K | 355.98
